Here are results for 4 molecules from ChEMBL document CHEMBL1154196, “Synthesis and evaluation of (S,S)-N,N'-bis-[3-(2,2',6,6'-tetramethylbenzhydryloxy)-2-hydroxy-propyl]-ethylenediamine (S2824) analogs with anti-tuberculosis activity” (2009).

For orientation: MIC means the lowest concentration that inhibits growth of the organism.

Assay [1] deals with Mycobacterium tuberculosis. Put plainly: Antitubercular activity against isoniazid, rifampin-resistant Mycobacterium tuberculosis by radiometric BACTEC460 method. Format: functional.
Assay [2] deals with Mycobacterium tuberculosis. Put plainly: Antitubercular activity against isoniazid, rifampin, ethambutol, streptomycin-resistant Mycobacterium tuberculosis by radiometric BACTEC460 method. Format: functional.

Values after ≈ are worked out from the molar mass of the structure shown.

On to `Cc1ccc(C(OC[C@H](O)CN2CCN(C[C@@H](O)COC(c3ccc(C)cc3)c3ccc(C)cc3)CC2)c2ccc(C)cc2)cc1`, for which the MIC in assay [1] and in assay [2] was 6.25 µg/mL (≈ 10 µM) each time.
Turning to `Cc1ccc(C(OC[C@@H](O)CN2CCCN(C[C@H](O)COC(c3ccc(C)cc3)c3ccc(C)cc3)CC2)c2ccc(C)cc2)cc1`, the results for the MIC in assay [1] and in assay [2] were 1.56 µg/mL (≈ 2.45 µM) and 0.78 µg/mL (≈ 1.22 µM), respectively.
The matching figures for `Cc1ccc(C(OC[C@H](O)CN2CCCN(C[C@@H](O)COC(c3ccc(C)cc3)c3ccc(C)cc3)CC2)c2ccc(C)cc2)cc1`: 1.56 µg/mL (≈ 2.45 µM) and 1.56 µg/mL (≈ 2.45 µM).
Taken in the same sequence, the figures for `CC[C@@H](CO)NCCN[C@@H](CC)CO` [ETHAMBUTOL] were 3.13 µg/mL (≈ 15.3 µM) and greater than 12.5 µg/mL.
